Measurements published in PubChem BioAssay (NCI).
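Cultured in 96-well plates, cells were exposed to test compound for 48 hours across five concentrations. TGI marks complete inhibition of growth.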

Tests used:
Assay in all cases: NCI anticancer screen, dose series, 48 h
[1] = system: M14 melanoma
[2] = system: NCI/ADR-RES ovarian
[3] = system: DU-145 prostate
[4] = system: SF-295 CNS
[5] = system: OVCAR-4 ovarian
[6] = system: MCF7 breast
[7] = system: SR leukemia
[8] = system: RPMI-8226 leukemia
[9] = system: IGROV1 ovarian
[10] = system: T-47D breast
[11] = system: SN12C renal
[12] = system: CCRF-CEM leukemia
[13] = system: K-562 leukemia
[14] = system: PC-3 prostate
[15] = system: SK-MEL-5 melanoma
[16] = system: OVCAR-8 ovarian
[17] = system: SK-MEL-28 melanoma
[18] = system: MOLT-4 leukemia
[19] = system: LOX IMVI melanoma
[20] = system: HOP-62 NSCLC

Compound	TGI [1] [µM]	TGI [2] [µM]	TGI [3] [µM]	TGI [4] [µM]	TGI [5] [µM]	TGI [6] [µM]	TGI [7] [µM]	TGI [8] [µM]	TGI [9] [µM]	TGI [10] [µM]	TGI [11] [µM]	TGI [12] [µM]	TGI [13] [µM]	TGI [14] [µM]	TGI [15] [µM]	TGI [16] [µM]	TGI [17] [µM]	TGI [18] [µM]	TGI [19] [µM]	TGI [20] [µM]
C=C(C)[C@@H]1CCC2=C[C@H](CC(C)=CC3=CC(C)=C(O3)[C@@H]1OC)OC2=O	> 100	> 100	> 100	70.5	> 100	> 100	> 100	> 100	> 100	> 100	> 100	> 100	> 100	> 100	> 100	> 100	> 100	> 100		
O=c1c2ccccc2[nH]c2cc(O)cc(O)c12	> 100			> 100	> 100				> 100		> 100	> 100	> 100		85	> 100	> 100	> 100	> 100	
CCSc1nc(N)c2c(-c3ccccc3)c3c(nc2n1)CCC3	> 100	> 100	> 100	> 100	> 100	> 100	> 100	> 100	> 100	> 100	> 100	> 100	> 100	> 100	> 100	> 100	> 100	> 100	> 100	> 100
CC(=O)O[C@H]1[C@@H](OC(C)=O)C(C)(C)/C=C/[C@H](C)C(=O)[C@@]2(OC(C)=O)C[C@@](C)(OC(C)=O)[C@H](OC(C)=O)[C@@H]2[C@H]2OC(=O)CC[C@@]2(OC(=O)c2ccccc2)[C@@H]1OCC(C)C	> 100	> 100	> 100	> 100	> 100	> 100			> 100	> 100	> 100	> 100	> 100	> 100	> 100	> 100		> 100	> 100	> 100
CSCCC(NC(=O)OCc1ccccc1)NC(=O)OCc1ccccc1	> 100	> 100	> 100	> 100	> 100		> 100	> 100	> 100	> 100	> 100		> 100	> 100	> 100	> 100	> 100	> 100	> 100	> 100
